pIC50: −log10 of the molar value. ≈ marks a conversion by molar mass, not a printed value. Like-named read-outs stand apart in the source and are kept apart here.
Key:
CYP3A4 = CYP3A4 (Homo sapiens (Human), UniProt P08684); experiment: Inhibition of cytochrome P450 isozyme CYP3A4; format: in vitro ADME; conditions: for pIC50: recombinant enzyme
Procedure: (§1) A total of six specific probe substrates of six isozymes of CYPs, i.e., α-Naphthoflavone (CYP1A2), Sulphaphenazole (CYP2C9), Ticlopidine (CYP2C19), Quinidine (CYP2D6), Ketoconazole (CYP3A4), and Montelukast (CYP2C8) were co-incubated with recombinant hepatic drug enzymes CYP1A2, CYP2C9, CYP2C19, CYP2D6, CYP3A4, and CYP2C8 and test compounds, respectively. Nicotinamide adenine dinucleotide phosphate (NADP+), D-glucose-6-phosphate (G6P) and glucose-6-phosphate dehydrogenase (G6DHP) were added to start the reaction. At the end of the reaction, the corresponding half maximal inhibitory concentrations (IC50) were calculated by the fluorescence detection method (Ex490 nm/Em520 nm).

[1] = Pharmacokinetic test in rats; format: in vivo; conditions: SD rats; for Bioavailability: PO 10 mg/kg vs IV 1 mg/kg; for in vivo exposure after oral administration (in words) / oral bioavailability versus reference compound (in words): oral gavage
Procedure: Experimental animal: SD rats, 6-8 weeks. Six animals were used for each example compound.
Drug solution formulation: all of the Experimental Example compounds were formulated into 1 mg/mL solution. The solution system was 5% DMSO+20% Solutol HS15+75%(20% HP—β-CD aqueous solution).
Grouping for administration: the first group was administered by oral gavage (PO, three SD rats, 10 mg/kg, fasted overnight before administration, and fed after 4 hours following the administration); and the second group was administered by intravenous injection in dorsum of foot (IV, three SD rats, 1 mg/kg, fed freely).
Blood sampling time and treatment method: Blood was collected via the jugular vein at the following 7 to 8 points in time: 0.083 (only in the intravenous injection group), 0.25, 0.5, 1, 2, 4, 8, and 24 hours. The blood samples were centrifuged (2000 g, 4° C., 5 min) to obtain plasma. The samples were stored at −70° C. before analysis.
Analytical instruments and conditions: LC-MS/MS-33 (Triple Quad 6500+); MS: positive, ESI; mobile phases: Mobile phase A: H2O-0.025% FA-1 mM NH4OAc, Mobile phase B: MeOH-0.025% FA-1 mM NH4OAc; flow rate: 0.60 mL/min; chromatographic column: ACQUITY UPLC-BEH C18 (2.1×50 mm, 1.7 μm); column temperature: 60° C.

CYP2D6 = CYP2D6 (Homo sapiens (Human), UniProt P10635); experiment: Inhibition of cytochrome P450 isozyme CYP2D6; format: in vitro ADME; conditions: for pIC50: recombinant enzyme
Sequence of CYP2D6 (P10635 whole entry): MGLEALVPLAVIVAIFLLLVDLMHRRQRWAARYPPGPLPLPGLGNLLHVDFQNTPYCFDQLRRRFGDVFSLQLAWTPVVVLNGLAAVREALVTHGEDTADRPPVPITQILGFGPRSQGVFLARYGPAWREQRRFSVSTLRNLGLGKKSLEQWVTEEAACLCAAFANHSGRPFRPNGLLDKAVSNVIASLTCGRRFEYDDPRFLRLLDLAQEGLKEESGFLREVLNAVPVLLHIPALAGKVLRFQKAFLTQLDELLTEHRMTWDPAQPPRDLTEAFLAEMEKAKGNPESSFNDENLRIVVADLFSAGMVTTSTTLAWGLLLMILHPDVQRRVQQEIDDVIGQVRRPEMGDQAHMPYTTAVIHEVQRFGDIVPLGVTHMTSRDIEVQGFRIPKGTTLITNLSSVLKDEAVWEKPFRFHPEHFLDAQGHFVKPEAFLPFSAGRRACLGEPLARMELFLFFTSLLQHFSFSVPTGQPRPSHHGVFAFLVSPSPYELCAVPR
Procedure: as §1

CYP2C9 = CYP2C9 (Homo sapiens (Human), UniProt P11712); experiment: Inhibition of cytochrome P450 isozyme CYP2C9; format: in vitro ADME; conditions: for pIC50: recombinant enzyme
Sequence of CYP2C9 (P11712 whole entry): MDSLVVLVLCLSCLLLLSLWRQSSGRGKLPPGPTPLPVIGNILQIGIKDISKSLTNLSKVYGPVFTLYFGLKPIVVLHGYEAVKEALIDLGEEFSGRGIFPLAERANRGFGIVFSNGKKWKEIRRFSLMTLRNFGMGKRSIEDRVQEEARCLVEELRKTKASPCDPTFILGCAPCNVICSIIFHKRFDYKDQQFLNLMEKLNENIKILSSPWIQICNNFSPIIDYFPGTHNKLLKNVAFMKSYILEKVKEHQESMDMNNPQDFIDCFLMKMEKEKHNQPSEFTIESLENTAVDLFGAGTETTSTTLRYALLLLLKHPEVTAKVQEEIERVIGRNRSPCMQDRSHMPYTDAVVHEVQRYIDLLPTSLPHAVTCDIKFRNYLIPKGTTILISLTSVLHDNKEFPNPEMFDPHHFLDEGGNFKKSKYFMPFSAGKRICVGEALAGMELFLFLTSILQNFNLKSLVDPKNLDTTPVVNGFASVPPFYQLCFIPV
Procedure: as §1

CYP2C8 = CYP2C8 (Homo sapiens (Human), UniProt P10632); experiment: Inhibition of cytochrome P450 isozyme CYP2C8; format: in vitro ADME; conditions: for pIC50: recombinant enzyme
Sequence of CYP2C8 (P10632 whole entry): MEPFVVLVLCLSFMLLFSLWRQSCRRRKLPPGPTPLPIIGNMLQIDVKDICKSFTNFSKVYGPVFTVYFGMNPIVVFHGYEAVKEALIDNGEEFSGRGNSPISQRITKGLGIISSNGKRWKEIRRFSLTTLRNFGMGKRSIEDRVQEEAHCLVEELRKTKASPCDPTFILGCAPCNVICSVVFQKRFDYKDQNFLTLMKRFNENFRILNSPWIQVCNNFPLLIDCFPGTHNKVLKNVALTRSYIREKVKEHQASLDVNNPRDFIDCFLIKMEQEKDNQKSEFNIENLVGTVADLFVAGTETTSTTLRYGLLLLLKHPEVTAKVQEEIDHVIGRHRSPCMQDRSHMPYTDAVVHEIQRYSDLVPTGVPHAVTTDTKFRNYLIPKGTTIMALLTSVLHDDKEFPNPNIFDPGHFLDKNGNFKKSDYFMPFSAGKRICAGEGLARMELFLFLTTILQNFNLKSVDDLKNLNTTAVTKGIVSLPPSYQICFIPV
Procedure: as §1

[2] = Experiment on water solubility (HPLC-UV); format: physicochemical
Procedure: The detection was carried out in accordance with the high performance liquid chromatography (General Principles 0512 of Chinese Pharmacopoeia Volume IV (2020)):
Chromatographic conditions for the HPLC-UV method: mobile phase: 0.02 M KH2PO4 aqueous solution-acetonitrile (90:10), gradient elution; chromatographic column: C18; detection wavelength: 210 nm. The water solubility was calculated based on the peak area by the external standard method.

CYP2C19 = CYP2C19 (Homo sapiens (Human), UniProt P33261); experiment: Inhibition of cytochrome P450 isozyme CYP2C19; format: in vitro ADME; conditions: for pIC50: recombinant enzyme
Sequence of CYP2C19 (P33261 whole entry): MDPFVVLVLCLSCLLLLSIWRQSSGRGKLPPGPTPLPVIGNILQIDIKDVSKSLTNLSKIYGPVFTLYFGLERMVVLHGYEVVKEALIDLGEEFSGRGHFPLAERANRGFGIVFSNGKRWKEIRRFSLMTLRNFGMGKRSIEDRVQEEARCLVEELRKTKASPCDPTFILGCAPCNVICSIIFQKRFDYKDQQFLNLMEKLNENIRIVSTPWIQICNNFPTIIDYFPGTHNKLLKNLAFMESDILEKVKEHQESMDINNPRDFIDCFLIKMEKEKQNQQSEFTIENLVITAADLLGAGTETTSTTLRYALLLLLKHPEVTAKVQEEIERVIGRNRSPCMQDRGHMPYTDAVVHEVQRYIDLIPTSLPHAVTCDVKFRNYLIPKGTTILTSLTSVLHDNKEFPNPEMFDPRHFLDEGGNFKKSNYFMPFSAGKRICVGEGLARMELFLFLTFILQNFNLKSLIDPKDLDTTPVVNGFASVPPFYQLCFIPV
Procedure: as §1

CYP1A2 = CYP1A2 (Homo sapiens (Human), UniProt P05177); experiment: Inhibition of cytochrome P450 isozyme CYP1A2; format: in vitro ADME; conditions: for pIC50: recombinant enzyme
Sequence of CYP1A2 (P05177 whole entry): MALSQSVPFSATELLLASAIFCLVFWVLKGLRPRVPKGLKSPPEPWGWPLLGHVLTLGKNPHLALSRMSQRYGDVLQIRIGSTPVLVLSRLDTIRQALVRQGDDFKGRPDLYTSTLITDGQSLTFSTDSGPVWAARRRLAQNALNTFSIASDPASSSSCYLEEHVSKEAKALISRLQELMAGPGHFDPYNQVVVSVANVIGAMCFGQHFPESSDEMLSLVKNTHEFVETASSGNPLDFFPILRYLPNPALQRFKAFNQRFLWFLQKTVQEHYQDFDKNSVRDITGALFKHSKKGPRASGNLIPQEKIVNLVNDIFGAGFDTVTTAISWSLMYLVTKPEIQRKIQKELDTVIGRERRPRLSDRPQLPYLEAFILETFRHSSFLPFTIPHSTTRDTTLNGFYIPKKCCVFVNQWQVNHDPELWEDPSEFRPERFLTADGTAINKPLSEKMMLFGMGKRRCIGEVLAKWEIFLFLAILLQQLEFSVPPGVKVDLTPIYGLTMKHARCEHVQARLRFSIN
Procedure: as §1

AT1 = AT1 (Homo sapiens (Human), UniProt P30556); experiment: Calcium flux assay on AT1 cell line; format: cell-based; conditions: AT1/HEK293, calcium flux, angiotensin II agonist
Sequence of AT1 (P30556 whole entry): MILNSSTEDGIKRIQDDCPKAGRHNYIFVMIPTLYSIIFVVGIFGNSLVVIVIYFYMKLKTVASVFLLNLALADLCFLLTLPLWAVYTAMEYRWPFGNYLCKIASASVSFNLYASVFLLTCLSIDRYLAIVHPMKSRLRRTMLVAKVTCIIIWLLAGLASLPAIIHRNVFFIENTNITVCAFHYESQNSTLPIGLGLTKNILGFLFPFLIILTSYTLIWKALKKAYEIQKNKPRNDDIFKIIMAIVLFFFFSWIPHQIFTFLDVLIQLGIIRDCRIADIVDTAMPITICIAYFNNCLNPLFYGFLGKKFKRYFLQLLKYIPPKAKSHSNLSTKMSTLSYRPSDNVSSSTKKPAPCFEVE
Procedure: Test materials: a) cell line: AT1/HEK293; b) vehicles: F12, Invitrogen (Cat #11765-047); FBS, Corning (Cat #35-076-CV); Geneticin, Invitrogen (Cat #10131); c) reagent: Fluo-4 Direct, (Invitrogen, Cat #F10471); d) instruments: 384 well Poly-D-Lysine protein coating plate, Greiner #781946; Vi-cell XR Cell Viability Analyzer, Beckman Coulter; Incubator, Thermo.
For the agonist (angiotensin II) master plate, the agonist solution was diluted from 1 mM to 200 μM with the test buffer solution. […] Afterwards, 900 nL of each compound solution was transferred to the master plate and 30 μL of the test buffer solution was added. • a) The cell plate was removed from the incubator, and 20 μL of 2X Fluo-4 Direct was added by a pipette to a 384-well cell plate. • b) The cell plate was incubated at 37° C. for 50 min in the environment of 5% CO2, and then incubated at room temperature for 10 min. • c) The cell plate was removed from the incubator and placed in FLIPR. The compound plates and the tip box were placed in FLIPR. • d) Regarding the EC80 plate: • 1) Operations were conducted on […]. • 2) 10 μL of compound solution was transferred from the EC80 master plate to the cell plate. • 3) Fluorescence signals were read. • 4) The read signals were counted, and the EC80 value of each cell line was calculated using FLIPR. • 5) For the concentration of the compound plate, a solution having a concentration 6 times that of the reference agonist EC80 was formulated. • e) Regarding the compound plate: • 1) Operations were conducted on […]. • 2) 10 μL of compound was transferred to the cell plate. • 3) Fluorescence signals were read. • 4) 10 μL of solution having a concentration 6 times that of the reference agonist EC80 was transferred. • 5) Fluorescence signals were read. • f) Data analysis by Prism

[3] = read-out: IC50 activity against AT1 (class)
[4] = fluorescence detection, read-out: IC50 CYP3A4
[5] = fluorescence detection, read-out: IC50 CYP2D6
[6] = fluorescence detection, read-out: IC50 CYP2C9
[7] = fluorescence detection, read-out: IC50 CYP2C8
[8] = fluorescence detection, read-out: IC50 CYP2C19
[9] = fluorescence detection, read-out: IC50 CYP1A2

Sequence of CYP3A4 (P08684 whole entry): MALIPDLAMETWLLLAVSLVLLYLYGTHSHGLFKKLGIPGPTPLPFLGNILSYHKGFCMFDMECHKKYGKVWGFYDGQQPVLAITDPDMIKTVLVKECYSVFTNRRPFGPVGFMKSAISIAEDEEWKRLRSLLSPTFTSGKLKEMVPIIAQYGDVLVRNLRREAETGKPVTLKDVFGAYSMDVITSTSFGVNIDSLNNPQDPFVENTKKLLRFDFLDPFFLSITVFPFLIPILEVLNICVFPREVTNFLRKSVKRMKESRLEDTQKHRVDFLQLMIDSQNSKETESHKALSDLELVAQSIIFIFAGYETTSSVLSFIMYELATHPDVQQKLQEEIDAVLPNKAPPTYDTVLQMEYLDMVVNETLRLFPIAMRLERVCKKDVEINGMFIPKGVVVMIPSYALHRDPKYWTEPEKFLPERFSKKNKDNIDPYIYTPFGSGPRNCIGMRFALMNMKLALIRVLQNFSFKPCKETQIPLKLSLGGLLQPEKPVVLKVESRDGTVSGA

| Compound | AUClast ([1]; PO 10 mg/kg) [ng·h/mL] | Cmax ([1]; PO 10 mg/kg) [ng/mL] | T1/2 ([1]; PO 10 mg/kg) [h] | Tmax ([1]; PO 10 mg/kg) [h] | Bioavailability [1] [%] | in vivo exposure after oral administration (in words) [1] | oral bioavailability versus reference compound (in words) [1] | Solubility FaSSGF (pH1.6) ([2]; FaSSGF (pH1.6)) [mg/mL] | Solubility FaSSIF (pH6.5) ([2]; FaSSIF (pH6.5)) [mg/mL] | Solubility FeSSIF (pH5.0) ([2]; FeSSIF (pH5.0)) [mg/mL] | Solubility pH7.4 ([2]; pH7.4) [mg/mL] | pIC50 (AT1; [3]) | pIC50 (AT1; read-out: IC50 against AT1) | risk of inhibiting CYP3A4 activity (conclusion in words) (CYP3A4; conclusion to Table 4) | pIC50 (CYP3A4; [4]) | risk of inhibiting CYP2D6 activity (conclusion in words) (CYP2D6; conclusion to Table 4) | pIC50 (CYP2D6; [5]) | risk of inhibiting CYP2C9 activity (conclusion in words) (CYP2C9; conclusion to Table 4) | pIC50 (CYP2C9; [6]) | risk of inhibiting CYP2C8 activity (conclusion in words) (CYP2C8; conclusion to Table 4) | other results |
| --- | --- | --- | --- | --- | --- | --- | --- | --- | --- | --- | --- | --- | --- | --- | --- | --- | --- | --- | --- | --- | --- |
| CCCCC1=N[C@@]2(CC3C[C@H]3C2)C(=O)N1Cc1ccc(-c2ccccc2S(=O)(=O)Nc2noc(C)c2C)c(COCC)c1 (stereo partly drawn) [Example 3] | 24407 | 2993 | 7.00 | 2.17 | 69.3 | high in vivo exposure | higher oral bioavailability | >1 | 0.19 | 0.06 | 0.82 | 8.00 to 9.00 | 8.71 | – | – | – | – | – | – | – | risk of inhibiting CYP3A4 activity (conclusion in words) (CYP3A4): had an inhibitory effect; pIC50 (CYP3A4): 5.00 to 6.00; risk of inhibiting CYP2D6 activity (conclusion in words) (CYP2D6): no risk of inhibiting; pIC50 (CYP2D6): < 5.00; risk of inhibiting CYP2C9 activity (conclusion in words) (CYP2C9): no risk of inhibiting; pIC50 (CYP2C9): < 5.00; risk of inhibiting CYP2C8 activity (conclusion in words) (CYP2C8): no risk of inhibiting; pIC50 (CYP2C8): < 5.00; risk of inhibiting CYP2C19 activity (conclusion in words) (CYP2C19): no risk of inhibiting; pIC50 (CYP2C19): < 5.00; risk of inhibiting CYP1A2 activity (conclusion in words) (CYP1A2): no risk of inhibiting; pIC50 (CYP1A2): < 5.00 |
| CCCCC1=N[C@@]2(CC3C[C@H]3C2)C(=O)N1Cc1ccc(-c2ccccc2S(=O)(=O)Nc2noc(C)c2Cl)c(COCC)c1 (stereo partly drawn) [Example 7] | 23530 | 3080 | 5.28 | 3.33 | 43.4 | high in vivo exposure | higher oral bioavailability | 0.24 | 0.87 | 0.08 | 0.84 | 8.00 to 9.00 | 8.45 | no risk of inhibiting | < 5.00 | no risk of inhibiting | < 5.00 | no risk of inhibiting | < 5.00 | no risk of inhibiting | pIC50 (CYP2C8; [7]): < 5.00; risk of inhibiting CYP2C19 activity (conclusion in words) (CYP2C19; conclusion to Table 4): no risk of inhibiting; pIC50 (CYP2C19; [8]): < 5.00; risk of inhibiting CYP1A2 activity (conclusion in words) (CYP1A2; conclusion to Table 4): no risk of inhibiting; pIC50 (CYP1A2; [9]): < 5.00 |
| CCCCC1=NC2(CCCC2)C(=O)N1Cc1ccc(-c2ccccc2S(=O)(=O)Nc2noc(C)c2C)c(COCC)c1 [Sparsentan, reference compound] | – | – | – | – | – | – | – | – | – | – | – | – | 8.01 | had an inhibitory effect | 5.00 to 6.00 | no risk of inhibiting | < 5.00 | no risk of inhibiting | < 5.00 | had an inhibitory effect | AUC(0-t) ([1]; rat, plasma, PO 10 mg/kg): 18600 ng·h/mL; half-life ([1]; rat, plasma, PO 10 mg/kg): 924 min; Bioavailability ([1]; rat, plasma, read-out: Bioavailability): 20.6%; Cmax ([1]; rat, plasma, PO 10 mg/kg, read-out: Cmax): 1800 ng/mL; Tmax ([1]; rat, plasma, PO 10 mg/kg, read-out: Tmax): 1.42 h; pIC50 (CYP2C8; [7]): 5.00 to 6.00; solubility ([2]; aqueous medium at pH 7.4 (buffer not named), pH 7.4, aqueous buffer, pH7.4, read-out: Solubility pH7.4): 210 µg/mL (≈ 354 µM); solubility ([2]; pH 1.6, fassgf or other biorelevant, FaSSGF (pH1.6), read-out: Solubility FaSSGF (pH1.6)): 130 µg/mL (≈ 219 µM); solubility ([2]; pH 5, FeSSIF (pH5.0), read-out: Solubility FeSSIF (pH5.0)): 20 µg/mL (≈ 33.7 µM); solubility ([2]; pH 6.5, FaSSIF (pH6.5), read-out: Solubility FaSSIF (pH6.5)): 80 µg/mL (≈ 135 µM); risk of inhibiting CYP2C19 activity (conclusion in words) (CYP2C19; conclusion to Table 4): no risk of inhibiting; pIC50 (CYP2C19; [8]): < 5.00; risk of inhibiting CYP1A2 activity (conclusion in words) (CYP1A2; conclusion to Table 4): no risk of inhibiting; pIC50 (CYP1A2; [9]): < 5.00 |

Reference: patent publication US20240417395A1, “DUAL ANTAGONIST AND USE THEREOF” (NICOYA THERAPEUTICS (SHANGHAI) CO., LTD, priority 2021, published 2024)
